Assays:
CDK6/cyclin D3 = target: T1, CDK6/cyclin D3 (Homo sapiens, UniProt Q00534); experiment: CDK6/cyclin D3 kinase activity, mobility shift assay; assay type: biochemical
T1 construct: purchased Carna 04-107
Description: (§1) In vitro CDK kinase activity was tested using a mobility shift assay.
(§2) The IC50 values of the compounds were obtained by fitting using XLFit excel add-in version 5.4.0.8. Fitting formula:
(§3) Y=Bottom+(Top−Bottom)/(1+10^((Log IC50−X)×Hill Slope)). • X: the log value of the compound concentration; Y: the percent inhibition of the compound.

CDK4/cyclin D1 = target: T2, CDK4/cyclin D1 (Homo sapiens, UniProt P11802); experiment: CDK4/cyclin D1 kinase activity, mobility shift assay; assay type: biochemical
T2 construct: purchased ProQinase 0142-0143-1
Description: as §1, §2, §3

human PXR = target: T3, human PXR (Homo sapiens, UniProt O75469); experiment: PXR induction assay in DPX2 cells (luciferase reporter); assay type: cell-based
T3 construct: host or cells: DPX2 (HepG2)
T3 sequence (O75469 1-434): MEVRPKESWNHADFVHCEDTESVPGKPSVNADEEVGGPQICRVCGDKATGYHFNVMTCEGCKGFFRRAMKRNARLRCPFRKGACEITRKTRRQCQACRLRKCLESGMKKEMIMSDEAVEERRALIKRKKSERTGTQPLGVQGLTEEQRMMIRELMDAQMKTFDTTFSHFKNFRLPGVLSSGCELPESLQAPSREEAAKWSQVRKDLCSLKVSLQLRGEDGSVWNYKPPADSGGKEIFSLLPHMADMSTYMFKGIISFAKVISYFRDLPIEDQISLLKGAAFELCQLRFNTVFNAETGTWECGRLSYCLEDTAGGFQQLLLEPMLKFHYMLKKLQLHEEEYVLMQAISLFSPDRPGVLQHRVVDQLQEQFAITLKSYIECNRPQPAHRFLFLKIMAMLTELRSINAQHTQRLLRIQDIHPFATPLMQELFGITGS
Description: 1. The potential of the test compounds to induce the activity of drug metabolism enzymes by in vitro activating PXR was evaluated.
1) DPX2 (HepG2 cells were stably transfected with the human PXR gene and the fluorescent reporter gene) cells were purchased from Puracyp (Carlsbad, CA).
When covering 80-90% of the bottom of the culture flask, the cells were digested.
4) The cell suspension was transferred to a conical-bottomed centrifuge tube and centrifuged at 120 g for 10 min. The cells were suspended in the plating medium and adjusted to a concentration of 4×10^5 cells/mL. 100 μL of diluted cells were added to each well of a 96-well cell culture plate. The culture plate was placed in an incubator and incubated at 37° C. for 24 h before PXR activation assays.
The final concentration of DMSO was 0.1%. To 1 mL of pre-incubated medium, 1 μL of DMSO was added as a solvent control.
2) The cell culture plate was removed from the incubator, and the medium was discarded. 100 μL of each of the test compounds and positive compound was added to an appropriate well in duplicate, and the cell plate was placed in an incubator and incubated for 24 h.
1) After […] of drug treatment, quantification of PXR activation could be performed on the culture.
2) The CellTiter-Fluor™ cell viability assay kit and the One-Glo luciferase reagent were equilibrated to room temperature. The GF-AFC (10 μL) substrate was added to assay buffer (10 mL) to form 2× reagent, and the reagent was then diluted to 1× with 10 mL of PBS; the ONE-Glo substrate was added to the ONE-Glo luciferase assay buffer.
5) The ONE-Glo reagent was poured into a reagent reservoir, and then 50 μL was transferred to each well using a multi-channel pipette. The reagent was gently and well mixed, and the mixture was incubated and well mixed at room temperature for 5 min. After the incubation, the luminescence value of each well was read using a luminometer.
The luciferase activity was expressed in terms of […], where RLU is the mean luminescence intensity value of two replicates of each concentration of each compound, and RFU is the mean fluorescence intensity of two replicates of each concentration of each compound.
The calculation formula for induction fold: […]

[1] = compound concentration 0.123 μM

T1 sequence (Q00534 whole entry): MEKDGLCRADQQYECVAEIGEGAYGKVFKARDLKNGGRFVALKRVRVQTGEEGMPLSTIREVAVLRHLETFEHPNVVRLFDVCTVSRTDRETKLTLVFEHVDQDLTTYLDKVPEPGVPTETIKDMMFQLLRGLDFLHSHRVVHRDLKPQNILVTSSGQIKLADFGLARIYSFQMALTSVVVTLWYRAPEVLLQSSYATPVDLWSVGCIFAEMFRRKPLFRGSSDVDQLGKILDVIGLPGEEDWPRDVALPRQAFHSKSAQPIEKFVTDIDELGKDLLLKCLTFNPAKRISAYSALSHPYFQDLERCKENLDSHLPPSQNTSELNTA
T1 sequence (P30281 whole entry partner): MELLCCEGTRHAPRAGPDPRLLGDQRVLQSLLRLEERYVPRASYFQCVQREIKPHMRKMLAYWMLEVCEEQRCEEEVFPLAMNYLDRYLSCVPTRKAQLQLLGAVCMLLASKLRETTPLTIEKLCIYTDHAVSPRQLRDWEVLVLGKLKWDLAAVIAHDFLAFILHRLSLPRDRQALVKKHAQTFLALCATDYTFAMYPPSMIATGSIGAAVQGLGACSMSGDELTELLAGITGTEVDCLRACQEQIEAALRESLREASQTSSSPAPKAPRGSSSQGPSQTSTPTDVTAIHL
T2 sequence (P11802 whole entry): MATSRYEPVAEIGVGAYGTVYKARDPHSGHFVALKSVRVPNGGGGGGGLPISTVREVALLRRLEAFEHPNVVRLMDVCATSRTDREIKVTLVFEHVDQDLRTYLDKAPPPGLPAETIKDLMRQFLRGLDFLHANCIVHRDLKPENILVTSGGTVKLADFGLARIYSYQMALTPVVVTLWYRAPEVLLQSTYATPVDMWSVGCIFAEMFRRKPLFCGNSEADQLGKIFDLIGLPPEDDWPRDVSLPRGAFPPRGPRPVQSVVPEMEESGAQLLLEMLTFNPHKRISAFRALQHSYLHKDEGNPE
T2 sequence (P24385 whole entry partner): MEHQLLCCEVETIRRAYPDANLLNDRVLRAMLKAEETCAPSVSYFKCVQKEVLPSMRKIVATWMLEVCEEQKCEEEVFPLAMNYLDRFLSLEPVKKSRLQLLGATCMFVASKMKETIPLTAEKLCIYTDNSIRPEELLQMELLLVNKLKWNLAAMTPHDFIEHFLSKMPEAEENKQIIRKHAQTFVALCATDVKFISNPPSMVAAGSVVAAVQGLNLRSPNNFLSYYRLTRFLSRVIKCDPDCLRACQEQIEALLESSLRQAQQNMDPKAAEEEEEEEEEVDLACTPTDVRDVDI

IC50 (CDK6/cyclin D3) [nM]	IC50 (CDK4/cyclin D1) [nM]	Induction fold (human PXR; [1])	Induction fold (human PXR; compound concentration 10.0 μM)	SMILES
–	–	0.87	1.43	C[C@H]1COc2c(-c3nc(N[C@@H]4CCOC[C@H]4O)ncc3Cl)cc(F)c3nc(C(C)(C)O)n1c23 (single isomer, unassigned) [Isomer 1 with a retention time of 2.078 min in Example 4]
39	2.5	–	–	Cc1nc2c(F)cc(-c3nc(N[C@@H]4CCN(S(C)(=O)=O)C[C@H]4O)ncc3Cl)c3c2n1[C@@H](C)CO3 (single isomer, unassigned) [Isomer 1 with a retention time of 2.094 min in Example 2]
> 1000	26	–	–	Cc1nc2c(F)cc(-c3nc(N[C@@H]4CCOC[C@H]4O)ncc3F)c3c2n1[C@@H](C)CO3 (single isomer, unassigned) [Isomer 1 with a retention time of 2.903 min in Example 1]
64	15	–	–	Cc1nc2c(F)cc(-c3nc(N[C@@H]4CCOC[C@H]4O)ncc3Cl)c3c2n1[C@@H](C)CO3 (single isomer, unassigned) [Isomer 1 with a retention time of 3.518 min in Example 3]
–	–	0.99	1.48	C[C@@H]1COc2c(-c3nc(N[C@@H]4CCOC[C@H]4O)ncc3Cl)cc(F)c3nc(C(C)(C)O)n1c23 (single isomer, unassigned) [Isomer 2 with a retention time of 1.887 min in Example 4]
9.1	1.5	–	–	Cc1nc2c(F)cc(-c3nc(N[C@@H]4CCN(S(C)(=O)=O)C[C@H]4O)ncc3Cl)c3c2n1[C@@H](C)CO3 (single isomer, unassigned) [Isomer 2 with a retention time of 2.499 min in Example 2]
301	11	–	–	Cc1nc2c(F)cc(-c3nc(N[C@@H]4CCOC[C@H]4O)ncc3F)c3c2n1[C@@H](C)CO3 (single isomer, unassigned) [Isomer 2 with a retention time of 3.997 min in Example 1]

SMILES	IC50 (CDK6/cyclin D3) [nM]	IC50 (CDK4/cyclin D1) [nM]	Induction fold (human PXR; [1])	Induction fold (human PXR; compound concentration 10.0 μM)
CC1COc2c(-c3nc(N[C@@H]4CCOC[C@H]4O)ncc3Cl)cc(F)c3nc(C(C)(C)O)n1c23 (mixture of isomers) [4f (racemate) in Example 4]	171	15	–	–
